Experiments:
male KK-A^y mice [1] = assay: Hypotriglyceridemic action; assay type: in vivo, mouse; details: 4 consecutive days, non-fasting, about 24 hours after final administration, vs control group
Method: (§1) The triglyceride level in the plasma was measured using a commercially available assay kit (triglyceride G-test WAKO, Wako Pure Chemical Industries, Ltd.). The mice were grouped (5 mice per group) into a control group and an administration group, such that the mean and the standard deviation of the triglyceride level in the plasma of each group were nearly the same. Each test compound was suspended or dissolved in 5% gum arabic solution and administered orally to the administration group for 4 consecutive days from the next day. The 5% gum arabic solution was orally administered to the control group. Blood was drawn from the tail vein under a non-fasting state about 24 hours after the final administration and the triglyceride level in the plasma was measured. The decrease in the plasma triglyceride level was calculated from the following formula.
Decrease (%) in plasma triglyceride level=[(mean plasma triglyceride level of control group−mean plasma triglyceride level of test compound administration group)/mean plasma triglyceride level of control group]×100

male KK-A^y mice [2] = assay: Hypoglycemic action (method A); assay type: in vivo, mouse; details: 4 consecutive days, non-fasting, about 24 hours after final administration, vs control group
Method: as §1, with “glucose” for “triglyceride”, “(glucose CII-test” for “(triglyceride G-test”
Decrease (%) in plasma glucose level=[(mean plasma glucose level of control group−mean plasma glucose level of test compound administration group)/mean plasma glucose level of control group]×100

| Compound | Decrease (%) in plasma glucose level (male KK-A^y mice [2]; dose 30 mg/kg orally) | further results |
| --- | --- | --- |
| Cc1ccc(CN2Cc3cc(OCCc4nc(-c5ccccc5)oc4C)ccc3C[C@H]2C(=O)O)cc1 [Example 18, 2-(4-Methylbenzyl)-7-[2-(5-methyl-2-phenyloxazol-4-yl)ethoxy]-1,2,3,4-tetrahydroisoquinoline-(3S)-carboxylic acid] | 39.7% | Decrease (%) in plasma triglyceride level (male KK-A^y mice [1]; dose 30 mg/kg orally): 45.5% |
| Cc1oc(-c2ccccc2)nc1CCOc1ccc2c(c1)CN(Cc1ccncc1)[C@H](C(=O)[O-])C2.[Na+] [Example 56, Sodium 7-[2-(5-methyl-2-phenyloxazol-4-yl)ethoxy]-2-(pyridin-4-ylmethyl)-1,2,3,4-tetrahydroisoquinoline-(3S)-carboxylate] | – | Decrease (%) in plasma triglyceride level (male KK-A^y mice [1]; dose 30 mg/kg orally): 14.0% |
| CCOC(=O)CCCN1Cc2cc(OCCc3nc(-c4ccccc4)oc3C)ccc2C[C@H]1C(=O)O [Example 71, 2-[3-(Ethoxycarbonyl)propyl]-7-[2-(5-methyl-2-phenyloxazol-4-yl)ethoxy]-1,2,3,4-tetrahydroisoquinoline-(3S)-carboxylic acid] | 10.5% | – |
| CC(C)=Cc1nc(CCOc2ccc3c(c2)CN(Cc2ccccc2)[C@H](C(=O)O)C3)c(C)o1 [Example 36, 2-Benzyl-7-{2-[5-methyl-2-(2-methylpropenyl)oxazol-4-yl]ethoxy}-1,2,3,4-tetrahydroisoquinoline-(3S)-carboxylic acid] | 28.4% | Decrease (%) in plasma triglyceride level (male KK-A^y mice [1]; dose 30 mg/kg orally): 13.7% |
| O=C(O)[C@@H]1Cc2ccc(OCCC3CNc4ccccc43)cc2CN1Cc1ccccc1 (stereo partly drawn) [Example 41, 2-Benzyl-7-[(indolin-3-yl)ethoxy]-1,2,3,4-tetrahydroisoquinoline-(3S)-carboxylic acid] | 11.1% | – |
| O=C(O)[C@@H]1Cc2ccc(OCCc3cc4ccccc4o3)cc2CN1Cc1ccccc1 [Example 67, 7-[2-(Benzofran-2-yl)ethoxy]-2-benzyl-1,2,3,4-tetrahydroisoquinoline-(3S)-carboxylic acid] | 10.6% | – |
| CC(=O)N1Cc2cc(OCCc3nc(-c4ccccc4)oc3C)ccc2C[C@H]1C(=O)O [Example 3, 2-Acetyl-7-[2-(5-methyl-2-phenyloxazol-4-yl)ethoxy]-1,2,3,4-tetrahydroisoquinoline-(3S)-carboxylic acid] | 11.8% | – |
| CCc1ccc(CCOc2ccc3c(c2)CN(Cc2ccccc2)[C@H](C(=O)[O-])C3)nc1.[Na+] [Example 12, Sodium 2-benzyl-7-[2-(5-ethyl-pyridin-2-yl)ethoxy]1,2,3,4-tetrahydroisoquinoline-(3S)-carboxylate] | – | Decrease (%) in plasma triglyceride level (male KK-A^y mice [1]; dose 10 mg/kg orally): 22.9%; Decrease (%) in plasma glucose level (male KK-A^y mice [2]; dose 10 mg/kg orally): 12.0% |
| Cc1oc(-c2ccccc2)nc1CCOc1ccc2c(c1)CN(CCCc1ccccc1)[C@H](C(=O)O)C2 [Example 9, 7-[2-(5-Methyl-2-phenyloxazol-4-yl)ethoxy]-2-(3-phenylpropyl)-1,2,3,4-tetrahydroisoquinoline-(3S)-carboxylic acid] | 20.3% | – |
| CCCCN1Cc2cc(OCCc3nc(-c4ccccc4)oc3C)ccc2C[C@H]1C(=O)O [Example 35, 2-Butyl-7-[2-(5-methyl-2-phenyloxazol-4-yl)ethoxy]-1,2,3,4-tetrahydroisoquinoline-(3S)-carboxylic acid] | 22.1% | Decrease (%) in plasma triglyceride level (male KK-A^y mice [1]; dose 30 mg/kg orally): 12.4% |
| CC(C)(C)CN1Cc2cc(OCc3ccc4nc(C(C)(C)C)oc4c3)ccc2C[C@H]1C(=O)O [Example 54, 7-(2-tert-Butylbenzoxazol-6-yl)methoxy-2-(2,2-dimethylpropyl)-1,2,3,4-tetrahydroisoquinoline-(3S)-carboxylic acid] | 10.8% | – |
| CN(CCOc1ccc2c(c1)CN(Cc1ccccc1)[C@H](C(=O)[O-])C2)c1ccccn1.[Na+] [Example 11, Sodium 2-benzyl-7-[2-(N-methyl-N-(pyridin-2-yl)amino)ethoxy]-1,2,3,4-tetrahydroisoquinoline-(3S)-carboxylate] | – | Decrease (%) in plasma triglyceride level (male KK-A^y mice [1]; dose 10 mg/kg orally): 11.2% |
| COC(=O)[C@@H]1Cc2ccc(OCCc3nc(-c4ccccc4)oc3C)cc2CN1Cc1ccccc1 [Example 58, Methyl 2-benzyl-7-[2-(5-methyl-2-phenyloxazol-4-yl)ethoxy]-1,2,3,4-tetrahydroisoquinoline-(3S)-carboxylate] | 19.1% | Decrease (%) in plasma triglyceride level (male KK-A^y mice [1]; dose 30 mg/kg orally): 24.7% |
| Cc1oc(-c2ccccc2)nc1CCOc1ccc2c(c1)CN(C(=O)CC(C)(C)C)[C@H](C(=O)O)C2 [Example 46, 2-(3,3-Dimethylbutyryl)-7-[2-(5-methyl-2-phenyloxazol-4-yl)ethoxy]-1,2,3,4-tetrahydroisoquinoline-(3S)-carboxylic acid] | 28.6% | – |
| CC(C)=CC(=O)N1Cc2cc(OCCc3nc(-c4ccccc4)oc3C)ccc2C[C@H]1C(=O)O [Example 45, 2-(3-Methyl-2-butenoyl)-7-[2-(5-methyl-2-phenyloxazol-4-yl)ethoxy]-1,2,3,4-tetrahydroisoquinoline-(3S)-carboxylic acid] | 12.6% | – |
| COC(=O)CCC(=O)N1Cc2cc(OCCc3nc(-c4ccccc4)oc3C)ccc2C[C@H]1C(=O)O [Example 70, 2-[3-(Methoxycarbonyl)propionyl]-7-[2-(5-methyl-2-phenyloxazol-4-yl)ethoxy]-1,2,3,4-tetrahydroisoquinoline-(3S)-carboxylic acid] | 15.2% | – |
| Cc1oc(C2CC2)nc1CCOc1ccc2c(c1)CN(Cc1ccccc1)[C@H](C(=O)O)C2 [Example 59, 2-Benzyl-7-[2-(2-cyclopropyl-5-methyloxazol-4-yl)ethoxy]-1,2,3,4-tetrahydroisoquinoline-(3S)-carboxylic acid] | – | Decrease (%) in plasma triglyceride level (male KK-A^y mice [1]; dose 30 mg/kg orally): 13.7% |
| Cc1oc(-c2ccccc2)nc1CCOc1ccc2c(c1)CN(Cc1ccccn1)[C@H](C(=O)[O-])C2.[Na+] [Example 48, Sodium 7-[2-(5-methyl-2-phenyloxazol-4-yl)ethoxy]-2-(pyridin-2-ylmethyl)-1,2,3,4-tetrahydroisoquinoline-(3S)-carboxylate] | 16.1% | – |
| Cc1oc(-c2ccccc2)nc1CCOc1ccc2c(c1)CN(C)[C@H](C(=O)O)C2 [Example 4, 2-Methyl-7-[2-(5-methyl-2-phenyloxazol-4-yl)ethoxy]-1,2,3,4-tetrahydroisoquinoline-(3S)-carboxylic acid] | – | Decrease (%) in plasma triglyceride level (male KK-A^y mice [1]; dose 10 mg/kg orally): 14.3% |
| Cc1oc(-c2ccccc2)nc1CCOc1ccc2c(c1)CN(CC(C)C)[C@H](C(=O)O)C2 [Example 7, 2-Isobutyl-7-[2-(5-methyl-2-phenyloxazol-4-yl)ethoxy]-1,2,3,4-tetrahydroisoquinoline-(3S)-carboxylic acid] | 17.4% | Decrease (%) in plasma glucose level (male KK-A^y mice [2]; dose 10 mg/kg orally): 11.4% |
| CC(C)c1nc2cc(COc3ccc4c(c3)CN(Cc3ccccc3)[C@H](C(=O)O)C4)ccc2o1 [Example 55, 2-Benzyl-7-(2-isopropylbenzoxazol-5-yl)methoxy-1,2,3,4-tetrahydroisoquinoline-(3S)-carboxylic acid] | 13.9% | – |
| CC(C)(C)c1nc2cc(COc3ccc4c(c3)CN(Cc3ccccc3)[C@H](C(=O)O)C4)ccc2o1 [Example 53, 2-Benzyl-7-(2-tert-butylbenzoxazol-5-yl)methoxy-1,2,3,4-tetrahydroisoquinoline-(3S)-carboxylic acid] | 13.6% | – |
| CCCCCCN1Cc2cc(OCCc3nc(-c4ccccc4)oc3C)ccc2C[C@H]1C(=O)O [Example 6] | 12.2% | Decrease (%) in plasma glucose level (male KK-A^y mice [2]; dose 10 mg/kg orally): 10.7% |

From patent publication US6589963B2, “Heterocyclic compounds and salts thereof and medicinal use of the same” (Kyoto Pharmaceutical Industries, Ltd., priority 1999, dated 2003)
